Among the data in patent US9376425B2, “Heterocyclic compounds as MDM2 inhibitors for the treatment of cancer” (AMGEN INC., priority 2011, dated 2016) are IC50 values, retold here.

In general, IC50 refers to the concentration that gives 50% inhibition. Higher therefore signals weaker potency in that assay.

T1 sequence (Q00987 1-188): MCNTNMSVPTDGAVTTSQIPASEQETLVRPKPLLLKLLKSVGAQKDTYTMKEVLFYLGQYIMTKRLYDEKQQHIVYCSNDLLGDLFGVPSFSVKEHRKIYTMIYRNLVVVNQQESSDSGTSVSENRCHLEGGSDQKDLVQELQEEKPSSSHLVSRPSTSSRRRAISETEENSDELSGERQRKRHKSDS

The experiment addresses T1, human MDM2 (GST-hMDM2 1-188), interaction with biotinylated-p53 (1-83) (Homo sapiens, UniProt Q00987).
T1 construct: Amino acid residues 1-188 of human MDM2 were expressed; made in house; host or cells: Escherichia coli
Kind of experiment: improved HTRF assay (HTRF2 assay), inhibition of HDM2-p53 interaction. In kind it is binding. The conditions noted are these: 0.2 nM GST-hMDM2, 0.5 nM biotinylated-p53, 100 mM KF. In short, it runs like this:
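Time-resolved fluorescence (HTRF) read after >4 h equilibration with SA-XLent/anti-GST cryptate/KF detection reagents. Reaction: compound plus GST-hMDM2 for 20 min at room temperature, then E. coli-expressed biotinylated p53 residues 1-83 for 60 min, 2% DMSO final. Inhibition expressed versus nutlin-3.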
(In general: Time-resolved FRET reads energy transfer from a long-lived donor to a nearby acceptor.)
The compound `CC[C@@H](CN(c1ccccn1)S(=O)(=O)C1CC1)N1C(=O)[C@H](CC(=O)O)O[C@H](c2cccc(Cl)c2)[C@H]1c1ccc(Cl)cc1` (single isomer, unassigned) [Example 181, 2-((2S,5R,6R)-6-(3-chlorophenyl)-5-(4-chlorophenyl)-3-oxo-4-((S)-1-(N-(pyridin-2-yl)cyclopropanesulfonamido)butan-2-yl)morpholin-2-yl)acetic acid or 2-((2R,5R,6R)-6-(3-chlorophenyl)-5-(4-chlorophenyl)-3-oxo-4-((S)-1-(N-(pyridin-2-yl)cyclopropanesulfonamido)butan-2-yl)morpholin-2-yl)acetic acid] returned an IC50 of 1 nM.
`CC[C@@H](CS(=O)(=O)C(C)(C)C)N1C(=O)[C@@H](CC(=O)O)O[C@H](c2cccc(Cl)c2)[C@H]1c1ccc(Cl)c(F)c1` (single isomer, unassigned) [Example 182, 2-((2R,5R,6R)-4-((S)-1-(tert-butylsulfonyl)butan-2-yl)-5-(4-chloro-3-fluorophenyl)-6-(3-chlorophenyl)-3-oxomorpholin-2-yl)acetic acid or 2-((2S,5R,6R)-4-((S)-1-(tert-butylsulfonyl)butan-2-yl)-5-(4-chloro-3-fluorophenyl)-6-(3-chlorophenyl)-3-oxomorpholin-2-yl)acetic acid] registered an IC50 of 4 nM.
In the case of `CC[C@@H](CS(=O)(=O)C(C)(C)C)N1C(=O)[C@@H](CC(=O)O)O[C@H](c2cccc(Cl)c2)[C@H]1c1ccc(Cl)c(F)c1` (single isomer, unassigned) [Example 183, 2-((2R,5R,6R)-4-((S)-1-(tert-butylsulfonyl)butan-2-yl)-5-(4-chloro-3-fluorophenyl)-6-(3-chlorophenyl)-3-oxomorpholin-2-yl)acetic acid or 2-((2S,5R,6R)-4-((S)-1-(tert-butylsulfonyl)butan-2-yl)-5-(4-chloro-3-fluorophenyl)-6-(3-chlorophenyl)-3-oxomorpholin-2-yl)acetic acid] it was 178 nM.
In the case of `CC[C@@H](CS(=O)(=O)C1CCOCC1)N1C(=O)[C@@H](CC(=O)O)O[C@H](c2cccc(Cl)c2)[C@H]1c1ccc(Cl)cc1` (single isomer, unassigned) [Example 186, 2-((2R,5R,6R)-6-(3-chlorophenyl)-5-(4-chlorophenyl)-3-oxo-4-((S)-1-((tetrahydro-2H-pyran-4-yl)sulfonyl)butan-2-yl)morpholin-2-yl)acetic acid or 2-((2S,5R,6R)-6-(3-chlorophenyl)-5-(4-chlorophenyl)-3-oxo-4-((S)-1-((tetrahydro-2H-pyran-4-yl)sulfonyl)butan-2-yl)morpholin-2-yl)acetic acid], the IC50 came out at 2 nM.
In the case of `CC[C@@H](CS(=O)(=O)C1CCOCC1)N1C(=O)[C@@H](CC(=O)O)O[C@H](c2cccc(Cl)c2)[C@H]1c1ccc(Cl)cc1` (single isomer, unassigned) [Example 187, 2-((2R,5R,6R)-6-(3-chlorophenyl)-5-(4-chlorophenyl)-3-oxo-4-((S)-1-((tetrahydro-2H-pyran-4-yl)sulfonyl)butan-2-yl)morpholin-2-yl)acetic acid or 2-((2S,5R,6R)-6-(3-chlorophenyl)-5-(4-chlorophenyl)-3-oxo-4-((S)-1-((tetrahydro-2H-pyran-4-yl)sulfonyl)butan-2-yl)morpholin-2-yl)acetic acid] it was 2 nM; in that of `O=C(O)C[C@H]1O[C@H](c2cccc(Cl)c2)[C@@H](c2ccc(Cl)cc2)N([C@H](CN(c2ncccc2F)S(=O)(=O)C2CC2)C2CC2)C1=O` (single isomer, unassigned) [Example 188, 2-((2R,5R,6R)-6-(3-chlorophenyl)-5-(4-chlorophenyl)-4-((S)-1-cyclopropyl-2-(N-(3-fluoropyridin-2-yl)cyclopropanesulfonamido)ethyl)-3-oxomorpholin-2-yl)acetic acid or 2-((2S,5R,6R)-6-(3-chlorophenyl)-5-(4-chlorophenyl)-4-((S)-1-cyclopropyl-2-(N-(3-fluoropyridin-2-yl)cyclopropanesulfonamido)ethyl)-3-oxomorpholin-2-yl)acetic acid], less than 1 nM.
Compound `O=C(O)C[C@H]1O[C@H](c2cccc(Cl)c2)[C@@H](c2ccc(Cl)cc2)N([C@H](CN(c2ncccc2F)S(=O)(=O)C2CC2)C2CC2)C1=O` (single isomer, unassigned) [Example 189, 2-((2R,5R,6R)-6-(3-chlorophenyl)-5-(4-chlorophenyl)-4-((S)-1-cyclopropyl-2-(N-(3-fluoropyridin-2-yl)cyclopropanesulfonamido)ethyl)-3-oxomorpholin-2-yl)acetic acid or 2-((2S,5R,6R)-6-(3-chlorophenyl)-5-(4-chlorophenyl)-4-((S)-1-cyclopropyl-2-(N-(3-fluoropyridin-2-yl)cyclopropanesulfonamido)ethyl)-3-oxomorpholin-2-yl)acetic acid] yielded a half-inhibitory concentration (IC50) of less than 1 nM.
Under `CC[C@@H](CS(=O)(=O)CC1CC1)N1C(=O)[C@@H](CC(=O)O)O[C@H](c2cccc(Cl)c2)[C@H]1c1ccc(Cl)cc1` (single isomer, unassigned) [Example 190, 2-((2R,5R,6R)-6-(3-chlorophenyl)-5-(4-chlorophenyl)-4-((S)-1-((cyclopropylmethyl)sulfonyl)butan-2-yl)-3-oxomorpholin-2-yl)acetic acid or 2-((2S,5R,6R)-6-(3-chlorophenyl)-5-(4-chlorophenyl)-4-((S)-1-((cyclopropylmethyl)sulfonyl)butan-2-yl)-3-oxomorpholin-2-yl)acetic acid] stands 3 nM.
For the compound `CC[C@@H](CS(=O)(=O)CC1CC1)N1C(=O)[C@@H](CC(=O)O)O[C@H](c2cccc(Cl)c2)[C@H]1c1ccc(Cl)cc1` (single isomer, unassigned) [Example 191, 2-((2R,5R,6R)-6-(3-chlorophenyl)-5-(4-chlorophenyl)-4-((S)-1-((cyclopropylmethyl)sulfonyl)butan-2-yl)-3-oxomorpholin-2-yl)acetic acid or 2-((2S,5R,6R)-6-(3-chlorophenyl)-5-(4-chlorophenyl)-4-((S)-1-((cyclopropylmethyl)sulfonyl)butan-2-yl)-3-oxomorpholin-2-yl)acetic acid], the IC50 stood at 5 nM. Compared with the last compound, the IC50 is about 1.7-fold higher.
In the case of `CC(C)[C@@H](CN(c1ccccc1)S(=O)(=O)C1CC1)N1C(=O)[C@@H](CC(=O)O)O[C@H](c2cccc(Cl)c2)[C@H]1c1ccc(Cl)cc1` (single isomer, unassigned) [Example 192, 2-((2R,5R,6R)-6-(3-chlorophenyl)-5-(4-chlorophenyl)-4-((S)-3-methyl-1-(N-phenylcyclopropanesulfonamido)butan-2-yl)-3-oxomorpholin-2-yl)acetic acid or 2-((2S,5R,6R)-6-(3-chlorophenyl)-5-(4-chlorophenyl)-4-((S)-3-methyl-1-(N-phenylcyclopropanesulfonamido)butan-2-yl)-3-oxomorpholin-2-yl)acetic acid] it was 1 nM; in that of `CC(C)[C@H](CN(c1ccccc1)S(=O)(=O)C1CC1)N1C(=O)[C@@H](CC(=O)O)O[C@H](c2cccc(Cl)c2)[C@H]1c1ccc(Cl)cc1` (single isomer, unassigned) [Example 193, 2-((2R,5R,6R)-6-(3-chlorophenyl)-5-(4-chlorophenyl)-4-((R)-3-methyl-1-(N-phenylcyclopropanesulfonamido)butan-2-yl)-3-oxomorpholin-2-yl)acetic acid or 2-((2S,5R,6R)-6-(3-chlorophenyl)-5-(4-chlorophenyl)-4-((R)-3-methyl-1-(N-phenylcyclopropanesulfonamido)butan-2-yl)-3-oxomorpholin-2-yl)acetic acid], 32 nM; in that of `CCC[C@@H](CS(=O)(=O)C(C)(C)C)N1C(=O)[C@@H](CC(=O)O)O[C@H](c2cccc(Cl)c2)[C@H]1c1ccc(Cl)cc1` (single isomer, unassigned) [Example 194, 2-((2R,5R,6R)-4-((S)-1-(tert-butylsulfonyl)pentan-2-yl)-6-(3-chlorophenyl)-5-(4-chlorophenyl)-3-oxomorpholin-2-yl)acetic acid or 2-((2S,5R,6R)-4-((S)-1-(tert-butylsulfonyl)pentan-2-yl)-6-(3-chlorophenyl)-5-(4-chlorophenyl)-3-oxomorpholin-2-yl)acetic acid], 3 nM.
The compound `CCC[C@@H](CS(=O)(=O)C(C)(C)C)N1C(=O)[C@@H](CC(=O)O)O[C@H](c2cccc(Cl)c2)[C@H]1c1ccc(Cl)cc1` (single isomer, unassigned) [Example 195, 2-((2R,5R,6R)-4-((S)-1-(tert-butylsulfonyl)pentan-2-yl)-6-(3-chlorophenyl)-5-(4-chlorophenyl)-3-oxomorpholin-2-yl)acetic acid or 2-((2S,5R,6R)-4-((S)-1-(tert-butylsulfonyl)pentan-2-yl)-6-(3-chlorophenyl)-5-(4-chlorophenyl)-3-oxomorpholin-2-yl)acetic acid] yielded an IC50 of 3 nM. This counts as single-digit nanomolar.
With `CC(C)[C@@H](CN(c1ccccc1F)S(=O)(=O)C(C)C)N1C(=O)[C@@H](CC(=O)O)O[C@H](c2cccc(Cl)c2)[C@H]1c1ccc(Cl)cc1` (single isomer, unassigned) [Example 198, 2-((2R,5R,6R)-6-(3-chlorophenyl)-5-(4-chlorophenyl)-4-((S)-1-(N-(2-fluorophenyl)propan-2-ylsulfonamido)-3-methylbutan-2-yl)-3-oxomorpholin-2-yl)acetic acid or 2-((2S,5R,6R)-6-(3-chlorophenyl)-5-(4-chlorophenyl)-4-((S)-1-(N-(2-fluorophenyl)propan-2-ylsulfonamido)-3-methylbutan-2-yl)-3-oxomorpholin-2-yl)acetic acid], the IC50 amounted to 1 nM.
